The source made the active and inactive calls. No rule for the calls is given here.
Test system: CCRIS mutagenicity, Ames/micronucleus/aberration tests
Experiment: CCRIS mutagenicity studies
[1] = Test System: AMES SALMONELLA TYPHIMURIUM, Strain/Indicator: TA100, Metabolic Activation: NONE, Method: STANDARD PLATE

CN(C)Nc1ccn([C@@H]2O[C@H](CO)[C@@H](O)[C@H]2O)c(=O)n1
mutagenic call (Test System: CHINESE HAMSTER V-79, Strain/Indicator: V-79/6-THIOGUANINE, Metabolic Activation: NONE, Method: REPLATING): inactive; negative

Cc1c2ccccc2c(CCl)c2ccc3ccccc3c12
mutagenic call [1]: active; positive | mutagenic call (Test System: AMES SALMONELLA TYPHIMURIUM, Strain/Indicator: TA1537, Metabolic Activation: NONE, Method: STANDARD PLATE): active; positive

c1ccc(-c2ccccn2)nc1
mutagenic call (Test System: AMES SALMONELLA TYPHIMURIUM, Strain/Indicator: TA97, Metabolic Activation: RAT, LIVER, S-9, PHENOBARBITAL, Method: STANDARD PLATE): active; positive | mutagenic call (Test System: AMES SALMONELLA TYPHIMURIUM, Strain/Indicator: TA98, Metabolic Activation: RAT, LIVER, S-9, PHENOBARBITAL, Method: STANDARD PLATE): active; positive | mutagenic call (Test System: AMES SALMONELLA TYPHIMURIUM, Strain/Indicator: TA100, Metabolic Activation: RAT, LIVER, S-9, PHENOBARBITAL, Method: STANDARD PLATE): active; positive | mutagenic call (Test System: AMES SALMONELLA TYPHIMURIUM, Strain/Indicator: TA1535, Metabolic Activation: RAT, LIVER, S-9, PHENOBARBITAL, Method: STANDARD PLATE): inactive; negative | mutagenic call (Test System: AMES SALMONELLA TYPHIMURIUM, Strain/Indicator: TA1537, Metabolic Activation: RAT, LIVER, S-9, PHENOBARBITAL, Method: STANDARD PLATE): inactive; negative | mutagenic call (Test System: AMES SALMONELLA TYPHIMURIUM, Strain/Indicator: TA1538, Metabolic Activation: RAT, LIVER, S-9, PHENOBARBITAL, Method: STANDARD PLATE): inactive; negative

Nc1ccc(S(=O)(=O)c2ccc(N)cc2)cc1
mutagenic call (Test System: AMES SALMONELLA TYPHIMURIUM, Strain/Indicator: TA98, Metabolic Activation: NONE, Method: PREINCUBATION): inactive; negative | mutagenic call (Test System: AMES SALMONELLA TYPHIMURIUM, Strain/Indicator: TA98, Metabolic Activation: NONE, Method: STANDARD PLATE): inactive; negative | mutagenic call (Test System: AMES SALMONELLA TYPHIMURIUM, Strain/Indicator: TA98, Metabolic Activation: RAT, LIVER, S-9, PCB, Method: STANDARD PLATE): inactive; negative | mutagenic call (Test System: AMES SALMONELLA TYPHIMURIUM, Strain/Indicator: TA100, Metabolic Activation: NONE, Method: PREINCUBATION): inactive; negative | mutagenic call [1]: inactive; negative | mutagenic call (Test System: AMES SALMONELLA TYPHIMURIUM, Strain/Indicator: TA100, Metabolic Activation: RAT, LIVER, S-9, PCB, Method: STANDARD PLATE): inactive; negative | mutagenic call (Test System: E. COLI, Strain/Indicator: WP2 UVRA, Metabolic Activation: HAMSTER, LIVER, S-9, AROCLOR 1254, Method: STANDARD PLATE): inactive; negative | mutagenic call (Test System: E. COLI, Strain/Indicator: WP2 UVRA, Metabolic Activation: HAMSTER, LIVER, S-9, Method: STANDARD PLATE): inactive; negative | mutagenic call (Test System: E. COLI, Strain/Indicator: WP2 UVRA, Metabolic Activation: MOUSE, LIVER, S-9, AROCLOR 1254, Method: STANDARD PLATE): inactive; negative | mutagenic call (Test System: E. COLI, Strain/Indicator: WP2 UVRA, Metabolic Activation: MOUSE, LIVER, S-9, Method: STANDARD PLATE): inactive; negative | mutagenic call (Test System: E. COLI, Strain/Indicator: WP2 UVRA, Metabolic Activation: NONE, Method: STANDARD PLATE): inactive; negative | mutagenic call (Test System: E. COLI, Strain/Indicator: WP2 UVRA, Metabolic Activation: RAT, LIVER, S-9, AROCLOR 1254, Method: STANDARD PLATE): inactive; negative | mutagenic call (Test System: E. COLI, Strain/Indicator: WP2 UVRA, Metabolic Activation: RAT, LIVER, S-9, Method: STANDARD PLATE): inactive; negative

From PubChem BioAssay AID1259407 (Chemical Carcinogenesis Research Information System (CCRIS), 2018)
